Laboratory results as given in patent publication US20240417406A1, “NITROGEN-CONTAINING TRICYCLIC COMPOUND AND PHARMACEUTICAL USE THEREOF” (JAPAN TOBACCO INC., priority 2021, published 2024).

The compounds below were run against human PDHK2 (hPDHK2) (Homo sapiens (Human), UniProt Q15119) (assay: Inhibitory action of PDHK2 activity (PDH/hPDHK2 complex, residual PDH activity by NADH absorbance at 340 nm)). Settings: FLAG-tagged recombinant hPDHK2 with porcine heart PDH complex; PDHK reaction 45 min at room temperature.
Format: biochemical
Experimental: In the case of human PDHK2 (hPDHK2, NCBI Reference Database Accession number NM_002611.4), modified hPDHK2 cDNA wherein FLAG-Tag sequence was added to the N terminal of hPDHK2 cDNA clone (pReceiver-M01/PDK2-GeneCopoeia) as the base was prepared by polymerase chain reaction (PCR) and ligated to the NdeI/EcoRI site of pET-17b vector (Merck KGaA, Catalog Number 69663-3). The recombinant construct was transformed into Escherichia coli DH5a. The recombinant clones were identified, and plasmid DNA was isolated and subjected to the DNA sequence analysis. One clone which had the expected nucleic acid sequence was selected for expression work.
For expression of hPDHK2 activity, Escherichia coli strain BL21(DE3) cells (Merck KGaA, Catalog Number 69450-4) were transformed with the pET17b vector containing modified hPDHK2 cDNA. The Escherichia coli were grown to an optical density 0.6 ([…]) at 30° C. Protein expression was induced by the addition of 500 μmol/L isopropyl-β-thiogalactopyranoside. The Escherichia coli were cultured at 20° C. for 17 to for 18 hr and harvested by centrifugation. The harvested Escherichia coli was resuspended in a suspension buffer (20 mmol/L HEPES-NaOH, 500 mmol/L sodium chloride, 1% ethylene glycol, 0.1% Pluronic (registered trademark) F-68 (pH 8.0), cOmplete, EDTA-free (Roche) (pH 8.0)), and disrupted by a microfluidizer M-110H (MIZUHO INDUSTRIAL CO., LTD.). The precipitate was removed by centrifugation and the supernatant was added to DDDDK-tagged Protein PURIFICATION GEL (MEDICAL & BIOLOGICAL LABORATORIES CO., LTD., Code No. 3329). DDDDK-tagged Protein PURIFICATION GEL was washed with a washing buffer (20 mmol/L HEPES-NaOH, 500 mmol/L sodium chloride, 1% ethylene glycol, 0.1% Pluronic F-68 (pH 8.0)) and the bound protein was eluted with elution buffer 1 (20 mmol/L HEPES-NaOH, 100 μg/mL peptide (amino acid sequence DYKDDDDK) (SEQ ID NO: 1), 500 mmol/L sodium chloride, 1% ethylene glycol, 0.1% Pluronic F-68 (pH 8.0)). The eluted fractions containing FLAG-Tagged protein were pooled, concentrated by an ultrafiltration method, added to a gel filtration column (HiLoad 26/60 Superdex 200 (GE Healthcare Life Sciences, Code No. 17-1070-01)), and eluted with elution buffer 2 (20 mmol/L HEPES-NaOH, 150 mmol/L sodium chloride, 0.5 mmol/L ethylenediaminetetraacetic acid (EDTA), 1% ethylene glycol, 0.1% Pluronic F-68 (pH 8.0)). The eluted fractions were pooled and preserved at −80° C.
PDH (porcine heart PDH complex, Sigma P7032) and 0.5 μg/mL hPDHK2 were mixed in an assay buffer (50 mmol/L 3-morpholinopropanesulfonic acid (pH 7.0), 20 mmol/L dipotassium hydrogen phosphate, 60 mmol/L potassium chloride, 2 mmol/L magnesium chloride, 0.4 mmol/L EDTA, 0.2% poloxamer, 2 mmol/L dithiothreitol) so that the final concentration of PDH was 0.025 U/mL, and the mixture was incubated at 4° C. overnight to obtain a PDH/hPDHK2 complex solution.
PDH was mixed with the assay buffer so that the final concentration was 0.025 U/mL, and the mixture was incubated at 4° C. overnight to prepare a PDH solution.
The test compounds were diluted with DMSO. […] DMSO (1.5 μL) was added to control wells instead of test compound. In addition, DMSO (1.5 μL) was added to blank wells instead of the test compound, and PDH solution was added instead of the PDH/hPDHK2 complex solution. To measure an inhibitory action of the test compound on the PDHK activity inherent in the PDH solution, a test compound was added and the PDH solution instead of the PDH/hPDHK2 complex solution was added to a blank+test compound well.
Then, 10 μL of substrates (5 mmol/L sodium pyruvate, 5 mmol/L Coenzyme A, 12 mmol/L NAD, 5 mmol/L thiamine pyrophosphate, diluted with assay buffer) were added. The mixture was incubated at room temperature for 90 min, and the residual PDH activity was measured.
The absorbance of each well at 340 nm was measured using a microplate reader to detect NADH produced by the PDH reaction. […]
In the case of `C[C@H]1Cn2nc(C34CCC(C#N)(CC3)C4)cc2-c2cnc([C@@](C)(O)C(F)(F)F)n21` [Example 86, 4-((S)-5-methyl-3-((R)-1,1,1-trifluoro-2-hydroxypropan-2-yl)-5,6-dihydroimidazo[1,5-a]pyrazolo[5,1-c]pyrazin-9-yl)bicyclo[2.2.1]heptane-1-carbonitrile], the IC50 is reported as 14.1 nM.
In the case of `C[C@H]1Cn2nc(C34CCC(CO)(CC3)CO4)cc2-c2cnc([C@@](C)(O)C(F)(F)F)n21` [Example 94], the IC50 is reported as 49.5 nM.
`C[C@H]1Cn2nc(C34CCC(C#N)(C3)C4)cc2-c2cnc([C@@](C)(O)C(F)(F)F)n21` [Example 91, 4-((S)-5-methyl-3-((R)-1,1,1-trifluoro-2-hydroxypropan-2-yl)-5,6-dihydroimidazo[1,5-a]pyrazolo[5,1-c]pyrazin-9-yl)bicyclo[2.1.1]hexane-1-carbonitrile] was tested, and the IC50 was 23.3 nM.
`C[C@H]1Cc2nn(C(F)F)cc2-c2onc([C@@](C)(O)C(F)(F)F)c21` (racemic) [Example 22] gave an IC50 of 22.4 nM.
With `COc1cc2n(n1)C[C@H](C)n1c-2cnc1[C@@](C)(O)C(F)(F)F` [Example 67] the IC50 was 11.5 nM.
Work on `C[C@H]1Cn2c(nnc2C23CC(C(C)(C)O)(C2)C3)-c2onc([C@@](C)(O)C(F)(F)F)c21` [Example 13] yielded an IC50 of 7.5 nM.
`C[C@H]1Cc2nn([C@H]3C[C@@](C)(C#N)C3)cc2-c2onc([C@@](C)(O)C(F)(F)F)c21` (racemic) [Example 58, (1R,3s)-1-methyl-3-((S)-4-methyl-3-((R)-1,1,1-trifluoro-2-hydroxypropan-2-yl)-4,5-dihydro-7H-isoxazolo[5,4-e]indazol-7-yl)cyclobutane-1-carbonitrile and enantiomer thereof] was tested, and the IC50 was 20.4 nM.
Compound `C[C@H]1Cn2nc(OCF)cc2-c2onc([C@@](C)(O)C(F)(F)F)c21` [Example 64, (R)-1,1,1-trifluoro-2-((R)-8-(fluoromethoxy)-4-methyl-4,5-dihydroisoxazolo[5,4-c]pyrazolo[1,5-a]pyridin-3-yl)propan-2-ol] has an IC50 of 7.5 nM.
`C[C@H]1Cc2c(cnn2[C@H]2C[C@@](C)(C#N)C2)-c2onc([C@@](C)(O)C(F)(F)F)c21` (racemic) [Example 57, (1R,3s)-1-methyl-3-((S)-4-methyl-3-((R)-1,1,1-trifluoro-2-hydroxypropan-2-yl)-4,5-dihydro-6H-isoxazolo[5,4-e]indazol-6-yl)cyclobutane-1-carbonitrile and enantiomer thereof] gave an IC50 of 28.5 nM.
Compound `C[C@H]1Cn2nc(N3CCC4(CC3)COC4)cc2-c2cnc([C@@](C)(O)C(F)(F)F)n21` [Example 77] has an IC50 of 14.4 nM.
Work on `C[C@H]1Cc2c(cnn2C23CC(C#N)(C2)C3)-c2onc([C@@](C)(O)C(F)(F)F)c21` (racemic) [Example 51] yielded an IC50 of 13.7 nM.
Compound `Cc1nnc2n1C[C@H](C)c1c([C@@](C)(O)C(F)(F)F)noc1-2` [Example 6] has an IC50 of 11.7 nM.
With `C[C@H]1Cc2c(cnn2C(F)F)-c2onc([C@@](C)(O)C(F)(F)F)c21` (racemic) [Example 21] the IC50 was 19.8 nM.
`C[C@H]1Cc2c(cnn2C2CC2)-c2onc([C@@](C)(O)C(F)(F)F)c21` (racemic) [Example 18] gave an IC50 of 12.5 nM.
Work on `C[C@H]1Cn2nc(C34CCC(C#N)(CC3)CC4)cc2-c2cnnc([C@@](C)(O)C(F)(F)F)c21` (racemic) [Example 103, 4-[(R)-5-methyl-4-((R)-1,1,1-trifluoro-2-hydroxypropan-2-yl)-5,6-dihydropyrazolo[1′,5′:1,2]pyrido[3,4-d]pyridazin-9-yl]bicyclo[2.2.2]octane-1-carbonitrile and 4-[(S)-5-methyl-4-((S)-1,1,1-trifluoro-2-hydroxypropan-2-yl)-5,6-dihydropyrazolo[1′,5′:1,2]pyrido[3,4-d]pyridazin-9-yl]bicyclo[2.2.2]octane-1-carbonitrile] yielded an IC50 of 24.3 nM.
Work on `C[C@H]1Cc2nn([C@H]3CC[C@](C)(O)CC3)cc2-c2onc([C@@](C)(O)C(F)(F)F)c21` [Example 105, (1S,4r)-1-methyl-4-((S)-4-methyl-3-((R)-1,1,1-trifluoro-2-hydroxypropan-2-yl)-4,5-dihydro-7H-isoxazolo[5,4-e]indazol-7-yl)cyclohexan-1-ol] yielded an IC50 of 10 nM.
Compound `C[C@H]1Cc2nn(C)cc2-c2onc([C@@](C)(O)C(F)(F)F)c21` (racemic) [Example 23] has an IC50 of 18.8 nM.
Work on `C[C@H]1Cc2nn(CCC(C)(C)O)cc2-c2onc([C@@](C)(O)C(F)(F)F)c21` [Example 41] yielded an IC50 of 9.1 nM.
In the case of `C[C@H]1Cn2nc(C34CCC(CO)(CC3)OC4)cc2-c2cnc([C@@](C)(O)C(F)(F)F)n21` [Example 85], the IC50 is reported as 16.6 nM.
Compound `C[C@H]1Cn2nc(N3CC4(C3)CC(F)(F)C4)cc2-c2cnc([C@@](C)(O)C(F)(F)F)n21` [Example 84, (R)-2-((S)-9-(6,6-difluoro-2-azaspiro[3.3]heptan-2-yl)-5-methyl-5,6-dihydroimidazo[1,5-a]pyrazolo[5,1-c]pyrazin-3-yl)-1,1,1-trifluoropropan-2-ol] has an IC50 of 36.5 nM.
`C[C@H]1Cn2nc(OCCC(C)(C)O)cc2-c2onc([C@@](C)(O)C(F)(F)F)c21` (racemic) [Example 34] was tested, and the IC50 was 14.7 nM.
In the case of `C[C@H]1Cn2nccc2-c2onc([C@@](C)(O)C(F)(F)F)c21` (racemic) [Example 17], the IC50 is reported as 21.3 nM.
Work on `C[C@H]1Cn2c(nnc2C2CC2)-c2onc([C@@](C)(O)C(F)(F)F)c21` [Example 5] yielded an IC50 of 10.6 nM.
`C[C@H]1Cn2c(-c3ccc(F)cc3)nnc2-c2onc([C@@](C)(O)C(F)(F)F)c21` [Example 7] showed an IC50 of 9.2 nM.
Compound `C[C@H]1Cn2nc(OCCC(C)(C)O)cc2-c2onc([C@@](C)(O)C(F)(F)F)c21` [Example 62, 2-methyl-4-(((R)-4-methyl-3-((R)-1,1,1-trifluoro-2-hydroxypropan-2-yl)-4,5-dihydroisoxazolo[5,4-c]pyrazolo[1,5-a]pyridin-8-yl)oxy)butan-2-ol] has an IC50 of 8 nM.
In the case of `C[C@H]1Cn2nc(C(F)(F)F)cc2-c2cnnc([C@@](C)(O)C(F)(F)F)c21` (racemic) [Example 99, mixture of (R)-1,1,1-trifluoro-2-((R)-5-methyl-9-(trifluoromethyl)-5,6-dihydropyrazolo[1′,5′:1,2]pyrido[3,4-d]pyridazin-4-yl)propan-2-ol and (S)-1,1,1-trifluoro-2-((S)-5-methyl-9-(trifluoromethyl)-5,6-dihydropyrazolo[1′,5′:1,2]pyrido[3,4-d]pyridazin-4-yl)propan-2-ol], the IC50 is reported as 23.4 nM.
With `C[C@H]1Cn2nc(C34CCC(C(C)(C)O)(CC3)CC4)cc2-c2cnc([C@@](C)(O)C(F)(F)F)n21` [Example 75] the IC50 was 10 nM.
`C[C@H]1Cc2[nH]ncc2-c2onc([C@@](C)(O)C(F)(F)F)c21` [Example 28, (R)-1,1,1-trifluoro-2-((S)-4-methyl-5,6-dihydro-4H-isoxazolo[5,4-e]indazol-3-yl)propan-2-ol] gave an IC50 of 8.5 nM.
`C[C@H]1Cn2c(nnc2C(F)(F)F)-c2onc([C@@](C)(O)C(F)(F)F)c21` [Example 1, (R)-1,1,1-trifluoro-2-((R)-6-methyl-3-(trifluoromethyl)-5,6-dihydroisoxazolo[5,4-c][1,2,4]triazolo[4,3-a]pyridin-7-yl)propan-2-ol] was tested, and the IC50 was 24.3 nM.
Compound `C[C@H]1Cn2nc(OCC34CCC(C#N)(CC3)C4)cc2-c2cnc([C@@](C)(O)C(F)(F)F)n21` [Example 90] has an IC50 of 30.5 nM.
